Data from patent US9149468B2, “Multicomponent crystals made ([2-amino-6-(4-fluoro-benzylamino)-pyridin-3-yl]-carbamic acid ethyl ester and 2-[2-[(2,6-dichlorphenyl)-amino]-phenyl]-acetic acid” (TEVA GmbH, priority 2010, dated 2015).
Structures can show the parent of a compound that is named as a salt. Where two headings read alike, the source gives them in different places.

Columns and labels:
[1] = pain and inflammation model (methods of DE 36 65 538); type: in vivo; settings: animal model
Description: The methods disclosed therein are herewith incorporated as a reference, […]

[2] = mice, 15 mg per kg flupirtine maleate combined with various dosages of NSAIDS; cited from earlier work
[3] = rat, 35 mg per kg flupirtine maleate combined with various dosages of NSAIDS; cited from earlier work

Structure (SMILES): CCOC(=O)Nc1ccc(NCc2ccc(F)cc2)nc1N.O=C(O)Cc1ccccc1Nc1c(Cl)cccc1Cl [multicomponent crystal according to the invention of ([2-amino-6-(4-fluoro-benzylamino)-pyridin-3-yl]carbamic acid ethyl ester and 2-[2-[(2,6-dichlorophenyl)-amino]-phenyl]acetic acid]
- effects in pain and inflammation model compared with the test results of DE 36 65 538 [1]: qualitatively comparable

Structure (SMILES): CCOC(=O)Nc1ccc(NCc2ccc(F)cc2)nc1N [flupirtine maleate]
- effect on antinociceptive activity of paracetamol, acetyl salicylic acid, and diclofenac [2]: enhances
- effect on antinociceptive activity of paracetamol, acetyl salicylic acid, and diclofenac [3]: enhances
